In patent publication US20090247560A1, “Diaryl ketimine derivative” (Banyu Pharmaceutical Co., Ltd., priority 2006, published 2009):

target: T1, human MCH-1R (Homo sapiens, UniProt Q99705); assay: MCH binding inhibition test; settings: inhibition of specific [125I]MCH binding to membranes of CHO-K1 cells expressing human MCH-1R; 25° C., one hour, pH 7.4
T1 construct: expressed in transfected cells; host or cells: CHO-K1 (American Type Culture Collection), membrane samples
Description: A human MCH-1R encoding cDNA sequence [FEBS Letters, Vol. 398, 253 (1996); Biochimica et Biophisica Acta, Vol. 1401, 216 (1998)] was cloned to a plasmid vector pEF/myc/cyto (Invitrogen Corporation). The obtained expression vector was transfected to host cells CHO-K1 (American Type Culture Collection) using Lipofectamine Plus Reagent (Life Technology Inc.) to provide MCH-1R expression cells.
Membrane samples prepared from the MCH-1R expression cells were incubated with each test compound and […] of [^125I]MCH (NEN Co.), in an assay buffer (50 mM Tris buffer comprising 10 mM magnesium chloride, 2 mM ethylenediamine tetraacetate, 0.01% bacitracin and 0.2% bovine serum albumin; pH 7.4) at 25° C. for an hour, followed by filtration through a glass filter CF/C (Wattman Co.). After washing the glass filter with 50 mM Tris buffer (pH 7.4) comprising 10 mM magnesium chloride, 2 mM ethylenediamine tetraacetate and 0.04% Tween-20, the radioactive activity on the glass filter was measured.

T1 sequence (Q99705 whole entry): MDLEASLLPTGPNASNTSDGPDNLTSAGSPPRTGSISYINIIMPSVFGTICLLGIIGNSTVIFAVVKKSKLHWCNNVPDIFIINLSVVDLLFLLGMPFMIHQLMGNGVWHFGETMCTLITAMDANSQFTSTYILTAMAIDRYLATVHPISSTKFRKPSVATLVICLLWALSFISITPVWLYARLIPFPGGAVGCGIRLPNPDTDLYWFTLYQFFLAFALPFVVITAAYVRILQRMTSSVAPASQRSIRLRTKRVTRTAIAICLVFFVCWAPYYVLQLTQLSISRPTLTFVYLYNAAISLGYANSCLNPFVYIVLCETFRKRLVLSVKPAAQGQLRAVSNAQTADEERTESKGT

**Q.** For CC(c1ccc(/C(=N/OCCF)c2ccc(F)c(F)c2)nc1)N1CCC2(CC1)OCc1ccncc12 (single isomer, unassigned) [Example 2-1-3, (E)-(3,4-difluorophenyl){5-[1-(1H,1′H-spiro[furo[3,4-c]pyridine-3,4′-piperidin]-1′-yl)ethyl]pyridin-2-yl}methanone O-(2-fluoroethyl)oxime], which IC50 is on record?
**A.** The IC50 was 1.55 nM.

**Q.** How did the IC50 turn out when CC(c1ccc(/C(=N/OCC(C)(C)O)c2ccc(F)c(F)c2)nc1)N1CCC2(CC1)OCc1ccncc12 (single isomer, unassigned) [Example 3-1-13, (E)-(3,4-difluorophenyl){5-[1-(1H,1′H-spiro[furo[3,4-c]pyridine-3,4′-piperidin]-1′-yl)ethyl]-2-pyridinyl}methanone O-(2-hydroxy-2-methylpropyl)oxime] was run?
**A.** Its IC50 is 4.01 nM.

**Q.** CCO/N=C(\c1ccc(F)c(F)c1)c1ncc(CN2CCC3(CC2)OCc2ccncc23)cn1 [Example 1-3-2, (E) or (Z)-(3,4-difluorophenyl)[5-(1H,1′H-spiro[furo[3,4-c]pyridine-3,4′-piperidin]-1′-ylmethyl)pyrimidin-2-yl]methanone O-ethyloxime] was tested. Which IC50 did it give?
**A.** Its IC50 is 8.9 nM.

**Q.** For FCCO/N=C(/c1ccc(CN2CCC3(CC2)OCc2ccncc23)cc1)c1ccc(F)c(F)c1 [Example 2-1-2, (Z)-(3,4-difluorophenyl)[4-(1H,1′H-spiro[furo[3,4-c]pyridine-3,4′-piperidin]-1′-ylmethyl)phenyl]methanone O-(2-fluoroethyl)oxime], which IC50 is on record?
**A.** The IC50 was 0.07 nM.

**Q.** For CN(C)C(=O)CO/N=C(/c1ccc(CN2CCC3(CC2)OCc2cc(F)ncc23)cc1)c1ccc(F)c(F)c1 [Example 2-6, 2-{[((1Z)-(3,4-difluorophenyl){4-[(6-fluoro-1H,1′H-spiro[furo[3,4-c]pyridine-3,4′-piperidin]-1′-yl)methyl]phenyl}methylene)amino]oxy}-N,N-dimethylacetamide], which IC50 is on record?
**A.** The IC50 was 0.27 nM.

**Q.** Which IC50 does the source give for Cn1cc2c(cc1=O)C1(CCN(Cc3ccc(/C(=N/OCC#N)c4ccc(F)c(F)c4)nc3)CC1)OC2 [Example 2-10-2, {[((1E)-(3,4-difluorophenyl){5-[(5-methyl-6-oxo-5,6-dihydro-1′H,3H-spiro[furo[3,4-c]pyridine-1,4′-piperidin]-1′-yl)methyl]pyridin-2-yl}methylene)amino]oxy}acetonitrile] here?
**A.** Its IC50 is 9.03 nM.

**Q.** Which IC50 does the source give for CCO/N=C(\c1ccc(F)c(F)c1)c1ccc(CN2CCC3(CC2)OCc2cc[n+]([O-])cc23)cn1 [Example 3-1-11, (E)-(3,4-difluorophenyl){5-[(5-oxido-1H,1′H-spiro[furo[3,4-c]pyridine-3,4′-piperidin]-1′-yl)methyl]-2-pyridinyl}methanone O-ethyloxime] here?
**A.** Its IC50 is 4.7 nM.

**Q.** Cn1cc2c(cc1=O)C1(CCN(Cc3ccc(/C(=N/OCF)c4ccc(F)c(F)c4)nc3)CC1)OC2 [Example 3-1-15, 1′-[(6-{(E)-(3,4-difluorophenyl)[(fluoromethoxy)imino]methyl}-3-pyridinyl)methyl]-5-methyl-3,5-dihydro-6H-spiro[furo[3,4-c]pyridine-1,4′-piperidin]-6-one] was tested. Which IC50 did it give?
**A.** Its IC50 is 8.37 nM.
